Data on twelve compounds can be found in patent US11098058B2, “Bicyclic ketone compounds and methods of use thereof” (Genentech, Inc., priority 2017, dated 2021).

One test deals with human RIP1 kinase domain (2-375) (Homo sapiens (Human), UniProt Q13546). Put plainly: biochemical. The conditions noted are these: RIP1 kinase inhibition, tight-binding apparent Ki, 50 nM enzyme, 50 μM ATP, 2 hours incubation.
Chain of human RIP1 kinase domain (2-375) (Q13546 2-375): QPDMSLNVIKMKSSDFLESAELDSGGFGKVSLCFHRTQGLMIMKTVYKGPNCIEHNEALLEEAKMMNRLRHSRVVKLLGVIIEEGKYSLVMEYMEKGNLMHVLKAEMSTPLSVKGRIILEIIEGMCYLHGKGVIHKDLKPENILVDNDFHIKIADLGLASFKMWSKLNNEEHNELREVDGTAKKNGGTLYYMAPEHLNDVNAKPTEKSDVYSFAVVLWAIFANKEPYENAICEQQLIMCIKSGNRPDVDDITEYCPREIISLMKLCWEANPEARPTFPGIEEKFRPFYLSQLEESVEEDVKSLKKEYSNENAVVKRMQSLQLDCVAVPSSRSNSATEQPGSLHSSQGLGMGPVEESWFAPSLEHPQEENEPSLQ
Procedure: RIP1 Kinase Inhibition Assays (Biochemical Assay)
The ability of the receptor interacting protein kinase (RIPK1) to catalyze the hydrolysis of adenosine-5′-triphosphate (ATP) is monitored using the Transcreener ADP (adenosine-5′-diphosphate) assay (BellBrook Labs). Purified human RIP1 kinase domain (2-375) (50 nM) derived from a baculovirus-infected insect cell expression system is incubated with test compounds for 2 hours in 50 mM Hepes buffer (pH 7.5) containing 30 mM MgCl2, 1 mM dithiothreitol, 50 μM ATP, 0.002% Brij-35, and 0.5% dimethyl sulfoxide (DMSO). […] The tracer bound to the antibody is displaced by the ADP generated during the RIP1K reaction, which causes a decrease in fluorescence polarization that is measured by laser excitation at 633 nm with a FP microplate reader M1000. Fractional activity was plotted against test article concentration. Using Genedata Screener software (Genedata; Basel, Switzerland), the data were fit to the tight-binding apparent inhibition constant (Ki^app) Morrison equation [Williams, J. W. and Morrison, J. F. (1979) The kinetics of reversible tight-binding inhibition. […] The following equation was used to calculate fractional activity and Ki^app:
[formula] where [E]T and [I]T are the total concentrations of active enzyme and test article, respectively.
Take `O=C(c1nc2n(n1)[C@H](c1ccccc1)C[C@@H]2F)[C@@]12COC[C@@H]1C2` (racemic) [Example 143, [rac-(5S,7S)-7-fluoro-5-phenyl-6,7-dihydro-5H-pyrrolo[1,2-b][1,2,4]triazol-2-yl]-[rac-(1R,5R)-3-oxabicyclo[3.1.0]hexan-1-yl]methanone]: the Ki is below 5 nM. Still for that read-out and setting: the figure for `O=C(c1nc2n(n1)[C@H](c1ccccc1)C[C@@H]2F)[C@H]1CCOC1` (racemic) [Example 131, [rac-(5S,7S)-7-fluoro-5-phenyl-6,7-dihydro-5H-pyrrolo[1,2-b][1,2,4]triazol-2-yl]-[rac-(3S)-tetrahydrofuran-3-yl]methanone] is below 5 nM; for `C[C@H]1C[C@@H]1C(=O)c1nc2n(n1)[C@H](c1ccccc1)C[C@@H]2F` (mixture of isomers) [Example 75, [(5S,7S)-7-fluoro-5-phenyl-6,7-dihydro-5H-pyrrolo[1,2-b][1,2,4]triazol-2-yl]-[rac-(1S,2S)-2-methylcyclopropyl]methanone] it is 3.7 nM; for `C[C@@]1(C(=O)c2nc3n(n2)[C@H](c2ccccc2)C[C@@H]3F)CCOC1` (racemic) [Example 137, [rac-(5S,7S)-7-fluoro-5-phenyl-6,7-dihydro-5H-pyrrolo[1,2-b][1,2,4]triazol-2-yl]-[rac-(3R)-3-methyltetrahydrofuran-3-yl]methanone] it is below 5 nM.

Consider `O=C(c1nc2n(n1)[C@H](c1ccccc1)C[C@@H]2F)[C@]12COC[C@H]1C2` (racemic) [Example 144, [rac-(5S,7S)-7-fluoro-5-phenyl-6,7-dihydro-5H-pyrrolo[1,2-b][1,2,4]triazol-2-yl]-[rac-(1S,5S)-3-oxabicyclo[3.1.0]hexan-1-yl]methanone], for which the Ki came to 230 nM. For `CC1(C(=O)c2nc3n(n2)[C@H](c2ccccc2)C[C@@H]3F)CCCO1` (mixture of isomers) [Example 129, (2-methyltetrahydrofuran-2-yl)-[rac-(5S,7S)-7-fluoro-5-phenyl-6,7-dihydro-5H-pyrrolo[1,2-b][1,2,4]triazol-2-yl]methanone], the Ki came out at 47 nM.

Staying with this test, now noted: tight-binding apparent inhibition constant (Ki app, Morrison equation), 50 nM enzyme, 50 μM ATP, 2 hours incubation.
`O=C(c1ccccc1)c1nc2n(n1)[C@H](c1ccccc1)C[C@@H]2F` (racemic) [Example 12, phenyl-[rac-(5S,7S)-7-fluoro-5-phenyl-6,7-dihydro-5H-pyrrolo[1,2-b][1,2,4]triazol-2-yl]methanone]: the Ki was found to be 21.2 nM. In the case of `CCC(=O)c1nc2n(n1)[C@H](c1ccccc1)C[C@@H]2F` (racemic) [Example 47, 1-[rac-(5S,7S)-7-fluoro-5-phenyl-6,7-dihydro-5H-pyrrolo[1,2-b][1,2,4]triazol-2-yl]propan-1-one], the Ki was found to be 3.56 nM.

For the compound `Cn1cc(C(=O)c2nc3n(n2)[C@@H](c2ccccc2)C[C@H]3F)cn1` (stereo in doubt) [Example 39, (1-methylpyrazol-4-yl)-[rac-(5R,7R)-7-fluoro-5-phenyl-6,7-dihydro-5H-pyrrolo[1,2-b][1,2,4]triazol-2-yl]methanone], the Ki is 225 nM. As for `CC(C)(C)C(=O)c1nc2n(n1)[C@@H](c1ccccc1)C[C@H]2F` (stereo in doubt) [Example 38, 2,2-dimethyl-1-[rac-(5R,7R)-7-fluoro-5-phenyl-6,7-dihydro-5H-pyrrolo[1,2-b][1,2,4]triazol-2-yl]propan-1-one], the Ki amounted to 4.17 nM. `O=C(CC(F)(F)F)c1nc2n(n1)[C@@H](c1ccccc1)C[C@H]2F` (racemic) [Example 29, 3,3,3-trifluoro-1-[rac-(5R,7R)-7-fluoro-5-phenyl-6,7-dihydro-5H-pyrrolo[1,2-b][1,2,4]triazol-2-yl]propan-1-one]: the Ki worked out at 134 nM.

For the compound `CCC(=O)c1nc2n(n1)[C@@H](c1ccccc1)C[C@@H]2F` (racemic) [Example 13, 1-[rac-(5R,7S)-7-fluoro-5-phenyl-6,7-dihydro-5H-pyrrolo[1,2-b][1,2,4]triazol-2-yl]propan-1-one], the Ki was found to be 193 nM.
